The conditions of series [1]: amide bond, BOP/Et3N then EDC, DCM/NMP 1:1, 40.0 °C.
Another series concerns S. aureus ATCC 13709. Briefly: MIC, S. aureus ATCC 13709. The following applies: Staphylococcus aureus. It is filed as cell-based.
A further series has as its system E. coli ATCC 25922. Briefly: MIC, E. coli ATCC 25922. The settings on record: Escherichia coli. The series is classed as cell-based.
A further series has as its target T1, hERG (Homo sapiens, UniProt Q12809).
T1 construct: host or cells: Chinese Hamster Ovary K1 cells
In words: Cerep automated patch-clamp hERG assay, Chinese Hamster Ovary K1 cells. It is filed as cell-based. The settings on record: for IC50: Table 19, automated patch-clamp, CHO K1 cells, tail current. How it is done: A Cerep automated patch-clamp assay using Chinese Hamster Ovary K1 cells was used to measure hERG IC50 values. The degree of inhibition (%) was obtained by measuring the tail current amplitude, which is induced by a one second test pulse to −40 mV after a two second pulse to +20 mV, before and after drug incubation (the difference in current was normalized to control and multiplied by 100 to obtain the percent inhibition).
Concentration (log) response curves were fitted to a logistic equation (three parameters assuming complete block of the current at very high test compound concentrations) to generate estimates of the 50% inhibitory concentration (IC50). The concentration-response relationship of each compound was constructed from the percentage reductions of current amplitude by sequential concentrations. The hERG IC50 values are provided in Table 19 below for the compounds tested.

For series [2] the following is noted: amide bond, BOP, 40.0 °C.
For a further series, the system named is S. pneumoniae ATCC 51916. Briefly: MIC, S. pneumoniae ATCC 51916. It is filed as cell-based. The settings on record: Streptococcus pneumoniae, ATCC51916.
The test system of a further series is P. aeruginosa ATCC 15692. Briefly: MIC, P. aeruginosa ATCC 15692. The series is classed as cell-based. The settings on record: Pseudomonas aeruginosa, ATCC15692.
Another series has as its system A. baumannii ATCC 19606. Briefly: MIC, A. baumannii ATCC 19606. It is filed as cell-based. The following applies: Acinetobacter baumannii, ATCC19606.
Series [3] deals with K. pneumoniae ATCC 700603. In words: MIC, K. pneumoniae ATCC 700603. It is filed as cell-based. The following applies: Klebsiella pneumoniae, ATCC700603.
Series [4] relates to B. thailandensis ATCC E264. Briefly: microbe, parasite or virus in culture. It is filed as cell-based. The following applies: Burkholderia thailandensis, ATCCE264, read-out: Bt MIC.
Series [5] concerns F. tularensis holarctica LVS. Briefly: microbe, parasite or virus in culture. The series is classed as cell-based. The settings on record: Francisella tularensis, read-out: Ft MIC.
The next series relates to Bp. In words: organism not typed. The series is classed as cell-based. The settings on record: read-out: Bp MIC.
The mark [6] stands for this setting: ATCC13709, S. aureus, Alamar Blue read after overnight incubation at 35° C., read-out: MIC Sa.
Where [7] appears, read: ATCC25922, E. coli, Alamar Blue read after overnight incubation at 35° C., read-out: MIC Ec.

In general, IC50 refers to the concentration that gives 50% inhibition.

In brackets after ≈: the same amount, converted by molar mass. Like-named read-outs stand apart in the source and are kept apart here. A value given as a limit tells only on which side of the number the result lay.

T1 sequence (Q12809 whole entry): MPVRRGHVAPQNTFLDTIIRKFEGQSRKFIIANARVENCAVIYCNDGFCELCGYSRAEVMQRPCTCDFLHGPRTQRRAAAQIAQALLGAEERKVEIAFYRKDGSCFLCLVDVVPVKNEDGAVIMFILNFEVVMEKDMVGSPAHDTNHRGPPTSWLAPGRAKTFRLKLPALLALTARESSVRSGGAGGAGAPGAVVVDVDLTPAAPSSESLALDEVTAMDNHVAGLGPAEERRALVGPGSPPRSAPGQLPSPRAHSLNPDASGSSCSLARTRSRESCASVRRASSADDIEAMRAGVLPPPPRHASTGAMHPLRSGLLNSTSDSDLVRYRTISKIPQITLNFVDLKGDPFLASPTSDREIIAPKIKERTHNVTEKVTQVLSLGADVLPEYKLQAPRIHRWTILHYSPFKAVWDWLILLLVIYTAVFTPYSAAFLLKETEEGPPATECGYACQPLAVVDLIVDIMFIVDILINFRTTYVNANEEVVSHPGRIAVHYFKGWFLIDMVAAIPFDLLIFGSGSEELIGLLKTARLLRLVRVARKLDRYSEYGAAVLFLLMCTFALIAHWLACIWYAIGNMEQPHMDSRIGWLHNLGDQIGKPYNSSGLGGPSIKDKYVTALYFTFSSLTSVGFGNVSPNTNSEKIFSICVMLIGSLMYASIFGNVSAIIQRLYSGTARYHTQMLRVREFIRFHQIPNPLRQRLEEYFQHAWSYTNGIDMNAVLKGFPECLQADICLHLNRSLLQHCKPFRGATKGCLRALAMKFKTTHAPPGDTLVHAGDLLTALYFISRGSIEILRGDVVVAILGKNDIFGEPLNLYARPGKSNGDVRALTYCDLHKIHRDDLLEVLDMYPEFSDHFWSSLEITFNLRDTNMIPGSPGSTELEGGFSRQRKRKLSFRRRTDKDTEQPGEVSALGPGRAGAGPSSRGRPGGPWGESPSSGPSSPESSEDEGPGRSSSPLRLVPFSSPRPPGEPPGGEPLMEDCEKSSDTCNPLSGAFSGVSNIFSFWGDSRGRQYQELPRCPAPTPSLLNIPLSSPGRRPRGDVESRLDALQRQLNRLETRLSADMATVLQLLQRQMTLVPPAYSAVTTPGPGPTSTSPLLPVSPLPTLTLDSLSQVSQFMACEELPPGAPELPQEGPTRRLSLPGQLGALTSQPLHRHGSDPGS

On to “5-((4-(6-aminohexyl)amino)-8-((tert-butoxycarbonyl)(methyl)amino)-6-fluoro-9H-pyrimido[4,5-b]indol-2-yl)oxy)nicotinic acid”, for which, in [1] (the molecule shown is the open-chain precursor, 16-membered ring, 18.5 mM), the ring closure, yield after HPLC was 74%.
Regarding `CNc1cc(F)cc2c1[nH]c1nc(Oc3cnc([C@@H](C)O)nc3)nc(N3C[C@H]4C[C@@H]3C[C@H]4N)c12` [Compound 4.408], the MIC in the series with S. aureus ATCC 13709 (setting [6]) and in the series with E. coli ATCC 25922 (setting [7]) was no more than 0.5 µg/mL in each case. Besides, half-maximal inhibition on hERG (IC50) required 6.4 µM.
For the compound `CN(C(=O)OC(C)(C)C)c1cc(F)cc2c1[nH]c1nc3nc(c12)NCCCCCCNC(=O)CSc1ncc(cn1)O3`, the ring closure, yield of all isomers in [2] (from CN(C(=O)OC(C)(C)C)c1cc(F)cc2c1[nH]c1nc(Oc3cnc(SCC(=O)O)nc3)nc(NCCCCCCN)c12, then EDC (Et3N), DCM/NMP, 30.0 mM, 3.0 h) was determined as 72%.
The compound “2-((5-((4-(6-aminohexyl)amino)-8-((tert-butoxycarbonyl)(methyl)amino)-6-fluoro-9H-pyrimido[4,5-b]indol-2-yl)oxy)pyrimidin-2-yl)thio)acetic acid” displayed a ring closure, yield after HPLC in series [1] (the molecule shown is the open-chain precursor, 19-membered ring, 30.0 mM) of 72%.
Turning to `CNc1cc(F)cc2c1[nH]c1nc(Oc3cnc(C(C)O)nc3)nc(N3CC4C[C@@H](N)C4C3)c12` (stereo partly shown) [Compound 4.409], the MIC in the series on S. aureus ATCC 13709 (setting [6]) is no more than 0.5 µg/mL; with S. aureus ATCC 13709 (ATCC13709, Table 10, Sa = S. aureus, read-out: Sa MIC) it was no more than 0.5 µg/mL; in the series on S. pneumoniae ATCC 51916 (Table 10, Spn = S. pneumoniae), no more than 0.5 µg/mL; with E. coli ATCC 25922 (setting [7]), no more than 0.5 µg/mL; in the series with E. coli ATCC 25922 (ATCC25922, Table 10, Ec = E. coli, strain not stated, read-out: Ec MIC), no more than 0.5 µg/mL; in the series on P. aeruginosa ATCC 15692 (Table 10, Pa = P. aeruginosa), 1 µg/mL (≈ 2.15 µM). The MIC with A. baumannii ATCC 19606 (Table 10, Ab = A. baumannii, strain not stated) came out at 1 µg/mL (≈ 2.15 µM); in series [3] (Table 10, Kpn = K. pneumoniae), 4 µg/mL (≈ 8.61 µM). On hERG, this compound returned an IC50 of 7.5 µM.
`CNc1cc(F)cc2c1[nH]c1nc3nc(c12)N[C@H](CN)COCCCNC(=O)CSc1ncc(cn1)O3`: the ring closure, yield of all isomers in series [2] (from CNc1cc(F)cc2c1[nH]c1nc(Oc3cnc(SCC(=O)O)nc3)nc(N[C@H](CN)COCCCN)c12, then EDC (Et3N), DCM/NMP (1:1), 38.5 mM, 3.0 h) was determined as 57%.
Consider `CNc1cc(F)cc2c1[nH]c1nc3nc(c12)N([C@H](CN)COCCCN)C(=O)CSc1ncc(cn1)O3`, for which the ring closure, yield after HPLC in [1] (from CNc1cc(F)cc2c1[nH]c1nc(Oc3cnc(SCC(=O)O)nc3)nc(N[C@H](CN)COCCCN)c12, 38.5 mM) is 57%.
With `CNc1cc(F)c(F)c2c1[nH]c1nc(Oc3cnc([C@@H](C)O)nc3)nc(N3C[C@H]4C[C@@H]3C[C@H]4N)c12` [Compound 9.1], the MIC in the series with S. aureus ATCC 13709 (ATCC13709, Table 20, read-out: Sa MIC) was no more than 0.5 µg/mL; in the series on S. pneumoniae ATCC 51916 (Table 20, read-out: Spn MIC), no more than 0.5 µg/mL; in the series with E. coli ATCC 25922 (ATCC25922, Table 20, read-out: Ec MIC), no more than 0.5 µg/mL; in the series on P. aeruginosa ATCC 15692 (Table 20, read-out: Pa MIC), 2 µg/mL (≈ 4.15 µM); in the series on A. baumannii ATCC 19606 (Table 20, read-out: Ab MIC) it was 1 µg/mL (≈ 2.07 µM); in series [3] (Table 20, read-out: Kpn MIC) it was 4 µg/mL (≈ 8.29 µM). The MIC (in series [4]; in series [5]; in the series with Bp) was 0.5 µg/mL (≈ 1.04 µM) each time. The IC50 at hERG was in the range of 80 to 100 µM. At hERG (compared with previous compounds in the series), the “selectivity in the hERG assay” value is “significantly more selective”.
In turn, `CN(C(=O)OC(C)(C)C)c1cc(F)cc2c1[nH]c1nc3nc(c12)NCCCCCCNC(=O)c1cncc(c1)O3` showed a ring closure, yield of all isomers in [2] (from CN(C(=O)OC(C)(C)C)c1cc(F)cc2c1[nH]c1nc(Oc3cncc(C(=O)O)c3)nc(NCCCCCCN)c12, then EDC (Et3N), DCM/NMP, 18.5 mM, 3.0 h) of 74%.
Consider `CN(C(=O)OC(C)(C)C)c1cc(F)cc2c1[nH]c1nc3nc(c12)NCCCCNC(=O)CSc1ncc(cn1)O3`, for which, in series [1] (from CN(C(=O)OC(C)(C)C)c1cc(F)cc2c1[nH]c1nc(Oc3cnc(SCC(=O)O)nc3)nc(NCCCCN)c12, 17-membered ring, 36.5 mM), the ring closure, yield after HPLC came out at 34%.
The compound `CNc1cc(F)cc2c1[nH]c1nc3nc(c12)N1CC(CNC(=O)COc2cc(C#N)cc(c2)O3)C1` had a ring closure, yield of all isomers in series [2] (from CNc1cc(F)cc2c1[nH]c1nc(Oc3cc(C#N)cc(OCC(=O)O)c3)nc(N3CC(CN)C3)c12, EDC (Et3N), DCM/NMP (1:1), 40.0 mM, 2.0 h) of 17%.

The record behind these values is US10865216B2, “Tricyclic Gyrase inhibitors” (MERCK SHARP & DOHME CORP., priority 2012, dated 2020).
